Measurements: patent publication US6358885B1, “Substituted phenylheterocyclic herbicides” (Mississippi State University, priority 1992, dated 2002)

Columns and labels:
Experiment in all cases: Test G preemergence/postemergence greenhouse plant response rating 0 to 100
broadleaf signalgrass = format: in vivo, Brachiaria plantaginea; settings: 0 to 100 scale
Method in brief: (§1)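 Greenhouse pots, one species each; non-phytotoxic solvent vehicle. Read-out: visual injury vs untreated, 13–21 DAT. Dash denotes no result.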

large crabgrass = format: in vivo, Digitaria sanguinalis; settings: 0 to 100 scale
Method in brief: as §1

itchgrass = format: in vivo, Rottboellia exaltata; settings: 0 to 100 scale
Method in brief: as §1

sandbur = format: in vivo, Cenchrus echinatus; settings: 0 to 100 scale
Method in brief: as §1

alfalfa = format: in vivo, Medicago ativa; settings: 0 to 100 scale
Method in brief: as §1

guineagrass = format: in vivo, Panicum maximum; settings: 0 to 100 scale
Method in brief: as §1

common ragweed = format: in vivo, Ambrosia elatior; settings: 0 to 100 scale
Method in brief: as §1

peanut = format: in vivo, Arachis hypoagaea; settings: 0 to 100 scale
Method in brief: as §1

pitted morningglory = format: in vivo, Ipomoea lacunosa; settings: 0 to 100 scale
Method in brief: as §1

yellow nutsedge = format: in vivo, Cyperus esculentus; settings: Rate 125 g/ha, 0 to 100 scale
Method in brief: as §1

common purslane = format: in vivo, Portulaca oleracea; settings: 0 to 100 scale
Method in brief: as §1

goosegrass = format: in vivo, Eleusine indica; settings: 0 to 100 scale
Method in brief: as §1

johnsongrass = format: in vivo, Sorghum halepense; settings: 0 to 100 scale
Method in brief: as §1

annual bluegrass = format: in vivo, Poa annua; settings: 0 to 100 scale
Method in brief: as §1

dallisgrass = format: in vivo, Paspalum dilatatum; settings: 0 to 100 scale
Method in brief: as §1

purple nutsedge = format: in vivo, Cyperus rotundus; settings: Rate 125 g/ha, 0 to 100 scale
Method in brief: as §1

bermudagrass = format: in vivo, Cynodon dactylon; settings: 0 to 100 scale
Method in brief: as §1

CCS(=O)(=O)Oc1cc(-c2nn3c(c2Cl)CCCC3)c(F)cc1Cl [Compound 25]
0: Plant response rating, Brdlf Sgnlgrass (broadleaf signalgrass; POSTEMERGENCE, Rate 125 g/ha) | Plant response rating, Brdlf Sgnlgrass (broadleaf signalgrass; POSTEMERGENCE, Rate 250 g/ha) | Plant response rating, Brdlf Sgnlgrass (broadleaf signalgrass; PREEMERGENCE, Rate 125 g/ha) | Plant response rating, Brdlf Sgnlgrass (broadleaf signalgrass; PREEMERGENCE, Rate 250 g/ha) | Plant response rating, Large Crabgrass (large crabgrass; POSTEMERGENCE, Rate 125 g/ha) | Plant response rating, Large Crabgrass (large crabgrass; POSTEMERGENCE, Rate 250 g/ha) | Plant response rating, Large Crabgrass (large crabgrass; PREEMERGENCE, Rate 125 g/ha) | Plant response rating, Large Crabgrass (large crabgrass; PREEMERGENCE, Rate 250 g/ha) | Plant response rating, Itchgrass (itchgrass; POSTEMERGENCE, Rate 125 g/ha) | Plant response rating, Itchgrass (itchgrass; POSTEMERGENCE, Rate 250 g/ha) | Plant response rating, Itchgrass (itchgrass; PREEMERGENCE, Rate 125 g/ha) | Plant response rating, Itchgrass (itchgrass; PREEMERGENCE, Rate 250 g/ha) | Plant response rating, S. Sandbur (sandbur; POSTEMERGENCE, Rate 125 g/ha) | Plant response rating, S. Sandbur (sandbur; POSTEMERGENCE, Rate 250 g/ha) | Plant response rating, S. Sandbur (sandbur; PREEMERGENCE, Rate 125 g/ha) | Plant response rating, S. Sandbur (sandbur; PREEMERGENCE, Rate 250 g/ha) | Plant response rating, Alfalfa Var. (alfalfa; POSTEMERGENCE, Rate 125 g/ha) | Plant response rating, Alfalfa Var. (alfalfa; POSTEMERGENCE, Rate 250 g/ha) | Plant response rating, Alfalfa Var. (alfalfa; PREEMERGENCE, Rate 125 g/ha) | Plant response rating, Alfalfa Var. (alfalfa; PREEMERGENCE, Rate 250 g/ha) | Plant response rating, Guineagrass (guineagrass; POSTEMERGENCE, Rate 125 g/ha) | Plant response rating, Guineagrass (guineagrass; POSTEMERGENCE, Rate 250 g/ha) | Plant response rating, Guineagrass (guineagrass; PREEMERGENCE, Rate 125 g/ha) | Plant response rating, Guineagrass (guineagrass; PREEMERGENCE, Rate 250 g/ha) | Plant response rating, Cmn Ragweed (common ragweed; POSTEMERGENCE, Rate 250 g/ha) | Plant response rating, Cmn Ragweed (common ragweed; PREEMERGENCE, Rate 125 g/ha) | Plant response rating, Cmn Ragweed (common ragweed; PREEMERGENCE, Rate 250 g/ha) | Plant response rating, Peanuts (peanut; POSTEMERGENCE, Rate 125 g/ha) | Plant response rating, Peanuts (peanut; POSTEMERGENCE, Rate 250 g/ha) | Plant response rating, Peanuts (peanut; PREEMERGENCE, Rate 125 g/ha) | Plant response rating, Peanuts (peanut; PREEMERGENCE, Rate 250 g/ha) | Plant response rating, Pit Morninglory (pitted morningglory; POSTEMERGENCE, Rate 125 g/ha) | Plant response rating, Pit Morninglory (pitted morningglory; POSTEMERGENCE, Rate 250 g/ha) | Plant response rating, Pit Morninglory (pitted morningglory; PREEMERGENCE, Rate 125 g/ha) | Plant response rating, Pit Morninglory (pitted morningglory; PREEMERGENCE, Rate 250 g/ha) | Plant response rating, Yellow Nutsedge (yellow nutsedge; POSTEMERGENCE) | Plant response rating, Yellow Nutsedge (yellow nutsedge; PREEMERGENCE) | Plant response rating, Cmn Purslane (common purslane; PREEMERGENCE, Rate 125 g/ha) | Plant response rating, Cmn Purslane (common purslane; PREEMERGENCE, Rate 250 g/ha) | Plant response rating, Goosegrass (goosegrass; POSTEMERGENCE, Rate 125 g/ha) | Plant response rating, Goosegrass (goosegrass; POSTEMERGENCE, Rate 250 g/ha) | Plant response rating, Goosegrass (goosegrass; PREEMERGENCE, Rate 125 g/ha) | Plant response rating, Goosegrass (goosegrass; PREEMERGENCE, Rate 250 g/ha) | Plant response rating, Johnsongrass (johnsongrass; POSTEMERGENCE, Rate 125 g/ha) | Plant response rating, Johnsongrass (johnsongrass; POSTEMERGENCE, Rate 250 g/ha) | Plant response rating, Johnsongrass (johnsongrass; PREEMERGENCE, Rate 125 g/ha) | Plant response rating, Johnsongrass (johnsongrass; PREEMERGENCE, Rate 250 g/ha) | Plant response rating, Ann Bluegrass (annual bluegrass; POSTEMERGENCE, Rate 125 g/ha) | Plant response rating, Ann Bluegrass (annual bluegrass; POSTEMERGENCE, Rate 250 g/ha) | Plant response rating, Ann Bluegrass (annual bluegrass; PREEMERGENCE, Rate 125 g/ha) | Plant response rating, Ann Bluegrass (annual bluegrass; PREEMERGENCE, Rate 250 g/ha) | Plant response rating, Dallisgrass (dallisgrass; POSTEMERGENCE, Rate 125 g/ha) | Plant response rating, Dallisgrass (dallisgrass; POSTEMERGENCE, Rate 250 g/ha) | Plant response rating, Dallisgrass (dallisgrass; PREEMERGENCE, Rate 125 g/ha) | Plant response rating, Dallisgrass (dallisgrass; PREEMERGENCE, Rate 250 g/ha) | Plant response rating, Purple Nutsedge (purple nutsedge; POSTEMERGENCE) | Plant response rating, Purple Nutsedge (purple nutsedge; PREEMERGENCE) | Plant response rating, Bermudagrass (bermudagrass; POSTEMERGENCE, Rate 125 g/ha) | Plant response rating, Bermudagrass (bermudagrass; POSTEMERGENCE, Rate 250 g/ha) | Plant response rating, Bermudagrass (bermudagrass; PREEMERGENCE, Rate 125 g/ha) | Plant response rating, Bermudagrass (bermudagrass; PREEMERGENCE, Rate 250 g/ha)
60: Plant response rating, Cmn Purslane (common purslane; POSTEMERGENCE, Rate 250 g/ha)
50: Plant response rating, Cmn Ragweed (common ragweed; POSTEMERGENCE, Rate 125 g/ha)
100: Plant response rating, Cmn Purslane (common purslane; POSTEMERGENCE, Rate 125 g/ha)
